Structures can show the parent of a compound that is named as a salt.
Columns and labels:
muscarinic receptors [1] = test: Binding to muscarinic receptors, competition with [3H]-QNB (rat brain membranes); conditions: for IC50: 50 pM [3H]-QNB, rat brain membranes, pH 7.4, 2.0 hr room temperature, mean of three experiments; for binding to muscarinic receptors (in words): qualitative statement
muscarinic receptors [2] = test: Binding, competition with 3H-oxotremorine M (3H-OXO-M), agonist binding (rat brain membranes); conditions: 3 nM 3H-oxotremorine M, 15 minutes room temperature, mean of three experiments
Experimental: (§1) Other binding was determined indirectly by the ability of compounds to compete with 1 nM ^3 H-pirenzepine (^3 H--PZ), or 3 nM ^3 H-oxotremorine M (^3 H--OXO--M) in a suspension of brain membranes. Each sample contained approximately 0.1 mg/ml protein for ^3 H--OXO--M in 20 mM Tris-Cl buffer with 1 mM MnCl2 and varying concentrations of compound in a final volume of […]. Samples were incubated 1 hr. for ^3 H--PZ, and 15 minutes for ^3 H--OXO--M at room temperature and then filtered through glass fiber filters using a Brandell cell harvester adapted for receptor binding work and the filters were washed twice with two 5-ml portions of cold buffer. Nonspecific binding was evaluated by the inclusion of excess atropine in a separate set of samples. IC50 values were determined from Hill plots of the inhibition data and are reported as means of three independent experiments each performed in triplicate.
(§2) Rats were killed by cervical dislocation and their brains rapidly removed. Tissue was homogenized in 9 vol. (w/v) of a 40 mM sodium-potassium phosphate buffer solution (pH 7.4) buffer solution with a Brinkman Polytron homogenizer five times for 10 sec at 5 sec intervals. The crude homogenate was subjected to centrifugation for 10 min at 1000×g, the supernatant saved, and the pellet resuspended in 9 vol. (w/v) of homogenization buffer and spun for another 10 min at 1000×g. The supernatants were combined and spun again for 30 min at 17,500×g. The resultant pellet was resuspended by homogenization in a Teflon-glass homogenizer in 10 vol. of buffer, and washed by centrifugation at 17,500×g for 30 min. The final pellet was resuspended by hand homogenization with a Teflon and glass homogenizer in buffer. The suspension was then divided into several portions and stored at -70° C.
(§3) In the table, ^3 H-QNB indicates general binding to muscarinic receptors and the lower the number, the higher is the potency. ^3 H-PZ indicates binding to muscarinic receptors and a preference for M1 receptors involved in memory and cognition. The lower the number for ^3 H-PZ the higher the potencies; the same is true for ^3 H--OXO--M which indicates agonist binding. In general, the higher the ratio of the value for ^3 H--PZ to the value for ^3 H--OXO--M the better is the agonistic characteristic.

[3] = test system: muscarinic receptors linked to M1, M3, M5 receptors; test: PI Cortex: phosphoinositide turnover in the cortex (brain slices); format: cell-based, Male Long Evans rats; conditions: Rattus norvegicus, read-out: PI Cortex, maximal % response above baseline
Experimental: Male Long Evans rats (200-300 g) were decapitated and their brains were rapidly removed and dissected according to the method of Glowinski and Iversen. […] The slices were gently agitated at 37° C. in a shaking water bath for 45 min with three changes to buffer.
Immediately before each experiment, [^3 H] inositol was purified by drying under Nz and passing a portion through a 1-ml column of Dowex AGl-X8 (formate form) to remove contaminants. […] Aliquots (25 microliters) of tissue slices were pipetted into flat-bottomed Beckman-biovials (5-ml capacity) containing 0.3 mM [^3 H]-inositol (15 Ci/mmol) and 10 mM LiCl in 245 microliters of buffer. The vials were then gassed, capped and incubated at 37° C. in a shaking water bath for 30 min. At the end of 30 min, agonist (or buffer for the determination of basal levels) was then added (30 microliters), and the incubation continued for an additional 45 min. The 45 -min incubation period was selected on the basis of the time course of labeled inositol phosphates ([^3 H]-IP's) accumulation under these conditions. The incubations were stopped by the addition of 0.94 ml of CHCl3 /MeOH (1:2, V/V) followed by 0.31 ml of CHCl3 and 0.31 ml of H2 O. The samples were mixed with vigorous shaking and spun at 1000×g for 10 min to separate organic and aqueous phases. Aliquots (750 microliter) of the upper aqueous phase were removed for determination of [^3 H]-IP's. In some cases 200 ml aliquots of the organic phase were removed, dried overnight and counted in 5 ml of scintillant (Amersham) for determination of [^3 H]-inositol incorporation into phospholipids.
Briefly, ACCELL QMA anion-exchange SEP-PAK's (Waters Associates) cartridges were converted into the formate form by washing first with 10 ml of a solution of 1.0 M-ammonium formate in 0.1 M-formic acid, followed by 20 ml of distilled water. The sample loading and solution delivery were performed by using disposable plastic syringes; an approximate flow rate of 10-15 ml/min was maintained. Total [^3 H]-IP's were determined by the "batch" method in which 750 microliter aliquots of the aqueous phase obtained as described above was diluted to 3 ml with distilled water. The entire amount was loaded on to the ACCELL QMA anion-exchange SEP-PAK cartridge. The cartridge was then washed with 10 ml of distilled water, followed by 5 mM-disodium tetraborate. Radiolabeled IP's were then eluted with 1 ml of 0.6 M-ammonium formate/0.06 M formic acid/5 mM-disodium tetraborate (pH 4.75) and 0.50 ml of this eluate was counted in 5 ml of aqueous counting scintillant.

M1 receptors [4] = molecular target: T1, M1 receptors (Rattus norvegicus, UniProt P08482); test: Binding, competition with 3H-pirenzepine (3H-PZ) (rat brain membranes); conditions: 1 nM 3H-pirenzepine, 1 hr room temperature, mean of three experiments
T1 sequence (P08482 1-460): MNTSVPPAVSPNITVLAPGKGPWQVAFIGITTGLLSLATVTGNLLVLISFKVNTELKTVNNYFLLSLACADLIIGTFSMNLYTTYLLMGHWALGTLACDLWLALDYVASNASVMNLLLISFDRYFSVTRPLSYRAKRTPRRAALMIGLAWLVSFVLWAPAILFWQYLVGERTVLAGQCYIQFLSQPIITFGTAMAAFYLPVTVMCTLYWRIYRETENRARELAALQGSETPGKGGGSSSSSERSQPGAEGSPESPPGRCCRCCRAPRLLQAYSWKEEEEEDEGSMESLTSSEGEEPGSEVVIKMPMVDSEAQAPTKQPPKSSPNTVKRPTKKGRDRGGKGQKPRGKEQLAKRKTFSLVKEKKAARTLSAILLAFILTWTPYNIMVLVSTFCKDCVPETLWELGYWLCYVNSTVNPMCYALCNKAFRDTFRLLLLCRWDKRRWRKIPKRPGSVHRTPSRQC
Experimental: as §1, §2, §3

M1 receptors [5] = test: Phosphoinositide turnover in the hippocampus (brain slices); format: cell-based, Male Long Evans rats; conditions: Rattus norvegicus, read-out: Phosphoinositide turnover in the hippocampus, maximal % response above baseline; for activation at 50 µM / activation at 100 µM: hippocampus
Experimental: The slices were gently agitated at 37° C. in a shaking water bath for 45 min with three changes to buffer. […] The samples were mixed with vigorous shaking and spun at 1000×g for 10 min to separate organic and aqueous phases. […] Briefly, […] anion-exchange SEP-PAK's (Waters Associates) cartridges were converted into the formate form by washing first with 10 ml of a solution of 1.0 M-ammonium formate in 0.1 M-formic acid, followed by 20 ml of distilled water. The sample loading and solution delivery were performed by using disposable plastic syringes; an approximate flow rate of 10-15 ml/min was maintained. […] The entire amount was loaded on to the […] anion-exchange SEP-PAK cartridge. […] Phosphoinositide turnover in the hippocampus indicates a biological response in an area of the brain where M1 receptors predominate. Higher numbers indicate greater efficacy and selectivity at M1 receptors.

muscarinic receptors [6] = test: Phosphoinositide (PI) response / inositol phosphate formation in brain slices (region not stated); format: cell-based, Male Long Evans rats; conditions: qualitative statement
Experimental: The slices were gently agitated at 37° C. in a shaking water bath for 45 min with three changes to buffer.
The sample loading and solution delivery were performed by using disposable plastic syringes; an approximate flow rate of 10-15 ml/min was maintained.

Compound	IC50 (muscarinic receptors [1])	IC50 (muscarinic receptors [2])	IC50 (M1 receptors [4])	activation at 100 µM [3]	activation at 50 µM (M1 receptors [5])	PI response (in words) (muscarinic receptors [6])	activation at 1000 µM ([3]; dose 1 mM)	binding to muscarinic receptors (in words) (muscarinic receptors [1])	activation at 100 µM (M1 receptors [5])	activation at 1000 µM (M1 receptors [5])
CC(C)OC(=O)C1CN=CNC1 (centres unmarked) [Example 4, Isopropyl 1,4,5,6-Tetrahydropyrimidine-5-carboxylate Hydrochloride]	3500 nM	1760 nM		7.2%						
CC(=O)OC1CN=C(C(F)(F)F)NC1.Cl (centres unmarked) [Example 18, 5-Acetoxy-2-trifluoromethyl-1,4,5,6-tetrahydropyrimidine HCl]	8700 nM	> 10000 nM	> 10000 nM		0%	no PI response				
COC(=O)C1CCC(N)=NC1.Cl (centres unmarked) [Example 14, 2-Amino-5-methoxycarbonyl-3,4,5,6-tetrahydropyridine HCl]	7300 nM	114 nM	770 nM	265%		unexpectedly superior PI response				
COC(=O)C1CCCN=C1N (centres unmarked) [Example 15, 2-amino-3-methoxycarbonyl-3,4,5,6-tetrahydropyridine HCl]	83000 nM	> 10000 nM	13000 nM	-5.5%						
COC(=O)C1=CNCN(C)C1 [Example 11, 1-Methyl-5-methoxycarbonyl-1,2,3,6-tetrahydropyrimidine HCl]	25100 nM	2400 nM	15000 nM				182%			
CC(=O)OC1CN=C(C)NC1 (centres unmarked) [Example 19, 2-methyl-5-acetoxy-1,4,5,6-tetrahydropyrimidine]	100000 nM	> 10000 nM	> 10000 nM		0%	virtually no PI response		extremely poor binding to muscarinic receptors		
COC(=O)C1CN=CNC1 (centres unmarked) [Example 1, 1,4,5,6-Tetrahydro-5-methoxycarbonylpyrimidine Hydrobromide]		90 nM		131%						237%
COC(=O)C1CCCC(N)=N1 (centres unmarked) [Example 17, 2-Amino-6-methoxycarbonyl-3,4,5,6-tetrahydropyridine HCL]	130000 nM	> 10000 nM	> 10000 nM	5.9%						
CC(=O)OC1CN=CNC1.Cl (centres unmarked) [Example 10, 5-Acetoxy-1,4,5,6-tetrahydropyrimidine HCl]	31600 nM	640 nM	10000 nM			efficacious with respect to the PI response		acceptable binding data	70%	
COC(=O)C1CCN=C(N)C1 (centres unmarked) [Example 16, 2-Amino-4-methoxycarbonyl-3,4,5,6-tetrahydropyridine HCL]	130000 nM			9%						

Continued by falling IC50 (muscarinic receptors [1]), values first:

IC50 (muscarinic receptors [1])	IC50 (muscarinic receptors [2])	IC50 (M1 receptors [4])	Compound	activation at 100 µM [3]	activation at 50 µM (M1 receptors [5])	PI response (in words) (muscarinic receptors [6])	activation at 1000 µM ([3]; dose 1 mM)	binding to muscarinic receptors (in words) (muscarinic receptors [1])	activation at 100 µM (M1 receptors [5])	activation at 1000 µM (M1 receptors [5])
2100 nM	1080 nM	1330 nM	CCCOC(=O)C1CN=CNC1 (centres unmarked) [Example 3, n-Propyl 1,4,5,6-Tetrahydropyrimidine-5-carboxylate Hydrochloride]	7.1%						
2000 nM	26 nM		Cc1noc(C2CN=CNC2)n1 (centres unmarked) [Example 9, 1,4,5,6-Tetrahydro-5-(3-methyl-1,2,4-oxadiazol-5-yl)pyrimidine trifluoroacetate]	700%					704%	
1900 nM			C#CCOC(=O)C1CN=CNC1 (centres unmarked) [Example 6, Propynyl 1,4,5,6-Tetrahydropyrimidine-5-carboxylate Hydrochloride]	230%						
1900 nM	160 nM		CCOC(=O)C1CN=CNC1 (centres unmarked) [Example 2, 1,4,5,6-Tetrahydro-5-ethoxycarbonylpyrimidine Hydrochloride]	150%						
~1000 nM	1090 nM	1260 nM	O=C(OCc1ccccc1)C1CN=CNC1 (centres unmarked) [Example 5, Benzyl 1,4,5,6-Tetrahydropyrimidine-5-carboxylate Hydrochloride]	3.5%						

Source: patent US5175166A, “Muscarinic agonists” (The University of Toledo, priority 1991, dated 1992)
